Reference: ChEMBL document CHEMBL1201862, “PubChem BioAssay data set” (2004)
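Compound exposure: 48 hours, 5 concentrations, 96-well plates. GI50 marks 50% less growth.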 Active and inactive are the calls of the source. Rule as the data show it: active = GI50 up to about 1.1 µM and inactive = higher. Residues, ends and D or L forms follow the SMILES beside them. Groups on a side chain read outwards from the residue. *: point of attachment. Cbz = O=C(OCc1ccccc1)*; Boc = CC(C)(C)OC(=O)*

Columns and labels:
Experiment in all cases: growth of human tumour cells (NCI), 48 h
[1] = tested on: BT-549
[2] = tested on: T47D
[3] = tested on: MDA-N
[4] = tested on: Hs-578T

CC1=NNC(=O)C1C1C=C(c2c[nH]c3ccccc23)OC1=O (configuration not stated)
GI50 [1]: > 100 µM (inactive) | GI50 [2]: > 100 µM (inactive) | GI50 [3]: > 100 µM (inactive) | GI50 [4]: > 100 µM (inactive)

COc1cccc(OCC(=N/NC(=O)c2ccncc2)/N=C/c2cccnc2)c1
GI50 [1]: > 100 µM (inactive) | GI50 [2]: > 100 µM (inactive) | GI50 [3]: > 100 µM (inactive) | GI50 [4]: > 100 µM (inactive)

O=C(CSC1=NC(=O)C2(NN1)c1ccccc1-c1ccccc12)NC(=S)Nc1ccccc1
GI50 [1]: > 10 µM (inactive) | GI50 [2]: 2.34 µM (inactive) | GI50 [3]: > 10 µM (inactive)

COc1nc(O)nc2c1C(c1ccc([N+](=O)[O-])cc1)c1c(OC)nc(O)nc1O2
GI50 [1]: > 100 µM (inactive) | GI50 [3]: > 100 µM (inactive) | GI50 [4]: > 100 µM (inactive)

C[C@]12C(=O)OC[C@H](c3ccccc3)N1C(=O)N(Cc1ccccc1)[C@@H]2CO
GI50 [1]: > 100 µM (inactive) | GI50 [3]: > 100 µM (inactive) | GI50 [4]: > 100 µM (inactive)

COC1(OC)CC(CO)(CNc2nc(N)nc(Cl)c2/C=N\O)C1
GI50 [1]: 25.3 µM (inactive) | GI50 [3]: 63.2 µM (inactive) | GI50 [4]: 22.7 µM (inactive)

COC(=O)/C=C(/C(=O)OC)c1c(C)cc2c(C)cc(C)cc(C)c1-2
GI50 [1]: 15 µM (inactive) | GI50 [2]: 44.1 µM (inactive) | GI50 [3]: 2.4 µM (inactive) | GI50 [4]: 11 µM (inactive)

NC(=O)C(NC=O)c1ccccc1 (configuration not stated)
GI50 [1]: > 100 µM (inactive) | GI50 [2]: > 100 µM (inactive) | GI50 [3]: > 100 µM (inactive) | GI50 [4]: > 100 µM (inactive)

CS(=O)(=O)c1ccc(C2=C(c3ccccc3)C(=O)OC2)cc1 [ROFECOXIB]
GI50 [2]: > 100 µM (inactive) | GI50 [3]: > 100 µM (inactive) | GI50 [4]: > 100 µM (inactive)

S=C(/N=c1\sc(NCc2ccccc2)nc2sc3c(c12)CCN(N1CCc2c(sc4nc(NCc5ccccc5)s/c(=N\C(=S)NCc5ccccc5)c24)C1)C3)NCc1ccccc1
GI50 [1]: 62.2 µM (inactive) | GI50 [2]: 21.2 µM (inactive) | GI50 [3]: 42.5 µM (inactive) | GI50 [4]: 54.3 µM (inactive)

CC(C)(C)/C(=N\Nc1nc2ccccc2[nH]1)c1ccccn1
GI50 [1]: > 100 µM (inactive) | GI50 [2]: 21 µM (inactive) | GI50 [3]: > 100 µM (inactive) | GI50 [4]: > 100 µM (inactive)

COC(=O)c1cccc(COc2ccc([N+](=O)[O-])cc2Cl)c1
GI50 [1]: > 100 µM (inactive) | GI50 [2]: > 100 µM (inactive) | GI50 [4]: 60.1 µM (inactive)

N/C1=C/C(=O)NC(=O)c2c(c3ccccc3oc2=O)C1
GI50 [1]: > 100 µM (inactive) | GI50 [2]: > 100 µM (inactive) | GI50 [3]: > 100 µM (inactive) | GI50 [4]: > 100 µM (inactive)

Cc1nc2c(=S)n(C)ncc2[nH]1
GI50 [1]: > 100 µM (inactive) | GI50 [2]: > 100 µM (inactive) | GI50 [3]: > 100 µM (inactive)

CCOC(=O)C1C(=O)CC(C)(O)C(C(=O)OCC)C1c1ccc(N(C)C)cc1 (configuration not stated)
GI50 [1]: > 100 µM (inactive) | GI50 [2]: > 100 µM (inactive)

Clc1cc(Cl)c2cc3cccc[n+]3cc2c1Cl
GI50 [1]: 6.76 µM (inactive) | GI50 [2]: 7.64 µM (inactive) | GI50 [3]: 16.5 µM (inactive) | GI50 [4]: 18.1 µM (inactive)

Nc1ncnc2c1ncn2C1C=CC(COS(N)(=O)=O)C1 (configuration not stated)
GI50 [2]: 8.81 µM (inactive) | GI50 [3]: 22.5 µM (inactive) | GI50 [4]: 15.6 µM (inactive)

OCc1ccccc1O[C@H]1O[C@H](CO)[C@@H](O)[C@H](O)[C@H]1O
GI50 [1]: > 100 µM (inactive) | GI50 [2]: > 100 µM (inactive) | GI50 [3]: > 100 µM (inactive) | GI50 [4]: > 100 µM (inactive)

Cc1c(C(=O)c2ccc(N)c3ccccc23)c2ccccc2n1CCN1CCOCC1
GI50 [1]: 27.4 µM (inactive) | GI50 [2]: 31.5 µM (inactive) | GI50 [3]: 16.3 µM (inactive) | GI50 [4]: 0.759 µM (active)

CC(C)(C)OC(=O)NC(CCCCNC(=O)CNC(=O)OCc1ccccc1)C(=O)NC(CCCCNC(=O)CNC(=O)OCc1ccccc1)C(=O)NC(CCCCNC(=O)CNC(=O)OCc1ccccc1)C(=O)NC(CCCCNC(=O)CNC(=O)OCc1ccccc1)C(=O)O (configuration not stated) (Boc-K([Gly-Cbz])K([Gly-Cbz])K([Gly-Cbz])K([Gly-Cbz])-OH; configuration not given here)
GI50 [1]: > 100 µM (inactive) | GI50 [2]: > 100 µM (inactive) | GI50 [3]: > 100 µM (inactive)

CC(C)CC1C(=O)NCCC(NC(=O)C(N)Cc2ccc(O)cc2)C(=O)NC(Cc2ccccc2)C(=O)NC(Cc2ccccc2)NC1=O (configuration not stated)
GI50 [2]: > 100 µM (inactive) | GI50 [3]: > 100 µM (inactive) | GI50 [4]: 0.885 µM (active)

CSc1ccc2c(c1)N(CCCN(C)C)c1ccccc1S2
GI50 [1]: 15.4 µM (inactive) | GI50 [2]: 10.4 µM (inactive) | GI50 [3]: 10.7 µM (inactive) | GI50 [4]: 11 µM (inactive)

COc1ccc(N2C(=O)/C(=C\c3cccc(Oc4ccccc4)c3)S(=O)(=O)C2c2ccccc2)cc1 (configuration not stated)
GI50 [1]: 25.6 µM (inactive) | GI50 [2]: 35.6 µM (inactive) | GI50 [3]: 19.1 µM (inactive)

COc1cc(OC)cc(Oc2nc3ccccc3nc2C(=O)O)c1
GI50 [2]: > 100 µM (inactive) | GI50 [4]: > 100 µM (inactive)

O=C(Nc1nc(C23CC4CC(CC(C4)C2)C3)cs1)c1c(O)c2ccccc2[nH]c1=O
GI50 [1]: > 100 µM (inactive) | GI50 [3]: > 100 µM (inactive) | GI50 [4]: > 100 µM (inactive)

CCC1c2[nH]c3ccccc3c2C[C@H]2C(=O)NC(Cc3ccccc3)C(=O)N12 (some centres not stated)
GI50 [1]: 22.4 µM (inactive) | GI50 [2]: 22 µM (inactive) | GI50 [3]: 25.8 µM (inactive) | GI50 [4]: 12.4 µM (inactive)

O=C(OCCN=C1c2ccccc2CCc2ccccc21)c1cc([N+](=O)[O-])cc([N+](=O)[O-])c1
GI50 [1]: > 100 µM (inactive) | GI50 [3]: > 31.6 µM (inactive) | GI50 [4]: > 31.6 µM (inactive)

N#C/C(=C\c1cn(Cc2ccccc2)c2ccccc12)c1nn(-c2ccccc2)c(N)c1C#N
GI50 [1]: 22.3 µM (inactive) | GI50 [2]: 1.33 µM (inactive) | GI50 [3]: 23.2 µM (inactive) | GI50 [4]: 25.6 µM (inactive)

CCN1CC2(COC)C(O)CC(OC)C34C5CC6(O)C(OC)C=C(C5C6OC(=O)c5ccc(OC)c(OC)c5)C(C(OC)C23)C14 (configuration not stated)
GI50 [1]: > 7.5 µM (inactive) | GI50 [2]: > 7.5 µM (inactive) | GI50 [3]: > 7.5 µM (inactive) | GI50 [4]: > 7.5 µM (inactive)

COC(=O)N/N=C(\C)C(CN1CCOCC1)C(c1ccccc1)c1cc2ccccc2oc1=O (configuration not stated)
GI50 [1]: 68.7 µM (inactive) | GI50 [2]: > 100 µM (inactive) | GI50 [4]: > 100 µM (inactive)

COc1ncnc2c1cnn2Cc1cn(COCC(O)CO)nn1 (configuration not stated)
GI50 [1]: > 100 µM (inactive) | GI50 [2]: > 100 µM (inactive) | GI50 [3]: > 100 µM (inactive)

CC1CCC(C(C)C)C(OC(=O)NCn2cc(-c3ccccc3)nn2)C1 (configuration not stated)
GI50 [1]: > 100 µM (inactive)

O=CNNC(=O)Nc1cccc2ccccc12
GI50 [2]: > 100 µM (inactive) | GI50 [4]: > 100 µM (inactive)

Cc1nnc2n1-c1ccccc1-c1[nH]c3ccccc3c1C2
GI50 [2]: > 100 µM (inactive) | GI50 [3]: 61.1 µM (inactive) | GI50 [4]: > 100 µM (inactive)

CC(=O)Nc1ccc2c(c1)[nH]c(=O)c1cc(Cl)ccc12
GI50 [1]: 25.8 µM (inactive) | GI50 [2]: 57.9 µM (inactive) | GI50 [4]: 94 µM (inactive)

Nc1ncnc2ccc(Sc3ccc4ncnc(N)c4c3)cc12
GI50 [1]: > 100 µM (inactive) | GI50 [2]: > 100 µM (inactive) | GI50 [4]: > 100 µM (inactive)

O=C1c2ccccc2-c2nc(-c3cccs3)cc3c2c1nc1ccccc13
GI50 [1]: 22 µM (inactive) | GI50 [3]: 6.97 µM (inactive) | GI50 [4]: 21.3 µM (inactive)

COc1c(O)cc2c3c(ccnc13)NC=C2
GI50 [1]: > 100 µM (inactive) | GI50 [3]: > 100 µM (inactive) | GI50 [4]: > 100 µM (inactive)

NC(=O)CN1CC(C2=C(O)CN(CC(N)=O)C2=O)=CC1=O
GI50 [1]: > 100 µM (inactive) | GI50 [2]: > 100 µM (inactive) | GI50 [4]: > 100 µM (inactive)

NC(=O)N/N=C1\CCCCc2ccccc21
GI50 [1]: > 10 µM (inactive) | GI50 [2]: > 10 µM (inactive) | GI50 [3]: > 10 µM (inactive)

COc1c(N2CCCCC2)c2c(=O)c3ccccc3oc2c2c3ccccc3n(C)c12
GI50 [1]: 98.6 µM (inactive) | GI50 [3]: 38.1 µM (inactive) | GI50 [4]: > 100 µM (inactive)
